Laboratory results: patent US9006185B2, “Use of cell-permeable peptide inhibitors of the JNK signal transduction pathway for the treatment of various diseases” (Xigen Inflammation Ltd., priority 2008, dated 2015)
“Also recorded” adds a separate entry of the source.

Columns and labels:
[1] = tested on: Varicella-Zoster Virus (VZV); experiment: VZV-BAC-Luc replication in HFFs, luciferase assay; format: cell-based, human; details: 24 h, 0.25, 0.5, 1.0 μM tested
Protocol: Virus yield was measured by luciferase assay. Samples were in triplicate and the average luminescence is shown; error bars represent the standard deviation of the mean.

THP-1 cells = experiment: LPS-induced cytokine and chemokine release in THP-1 cells; format: cell-based
TC-3 cells [2] = experiment: IL-1 induced pancreatic beta-cell death, peptide treatment; format: cell-based; details: one single addition 1 μM, 15 days of incubation with IL-1
Protocol: Inhibition of IL-1 induced pancreatic beta-cell death by the D-TAT-IB1(s) peptide was analyzed. TC-3 cells were incubated as described above for 30 minutes with one single addition of the indicated peptides (1, μM), then IL-1 (10 ng/ml) was added.
Apoptotic cells were then counted after two days of incubation with IL-1 by use of Propidium Iodide and Hoechst 33342 nuclear staining. A minimum of 1,000 cells were counted for each experiment. Standard Error of the Means (SEM) are indicated, n=5.
Long term inhibition of IL-1P induced cell-death by the D-TAT-IB1 peptide was also analyzed. TC-3 cells were incubated as above for 30 minutes with one single addition of the indicated peptides (1 μM), then IL-1 (10 ng/ml) was added, followed by addition of the cytokine every two days. Apoptotic cells were then counted after 15 days of incubation with IL-1 by use of propidium iodide and Hoechst 33342 nuclear staining. […] A minimum of 1.000 cells were counted for each experiment.

hAPP Tg mice = experiment: Plaque load by 6E10 immunohistochemistry and ThioflavinS staining in hAPP Tg mice; format: in vivo
Protocol: iv) Treatment • Forty female hAPP transgenic mice were treated with either 0.1 mg/kg b.w./every two weeks or 10 mg/kg b.w./every three weeks of the test substance XG-102 (SEQ ID NO: 11) in two different dosages (n=12/group) or treated with the vehicle (n=12) s.c. once every three weeks over four months.
viii) Evaluation of Brain Morphology • Brain tissues of all Tg animals investigated were handled in exactly the same way to avoid bias due to variation of this procedure. From brain halves of 24 Tg mice (8 of each group) 20 cryo-sections per layer (altogether 5 layers), each 10 μm thick (Leica CM 3050S) were sagittally cut and 5 (one from each layer) were processed and evaluated for quantification of plaque load. The five sagittal layers corresponded with the FIGS. 104 to 105, 107 to 108, 111 to 112, 115 to 116 and 118 to 119 according to the morphology atlas “The Mouse Brain” from Paxinos and Franklin (2nd edition). The first layer was specified by the requirement to include the whole hippocampus with it's regions CA1, CA2, CA3, GDIb and GDmb. Immunoreactivity was quantitatively evaluated in the hippocampus and in the cortex using the monoclonal human Aβ-specific antibody 6E10 (Signet) as well as ThioflavinS staining. Remaining brain hemispheres or tissue not used were saved and stored at JSW CNS until the end of the project. b) Evaluation
iii) Histology • i1) Measurement of Amyloid Depositions and Plaque Load • For 6E10 immunohistochemistry the following evaluation procedure was used: • aa) Contrasting the image for visualization of slice borders without applying the contrast on the image. • bb) Interactive drawing of the cortical outlines and the following measurement of the cortical area (=region area). • cc) Interactive drawing of the area of interest (AOI), in which stained objects are detected over a certain intensity based threshold level (the same for each image) and above a size of 8 μm^2. • dd) Measurement of the area of each object, the sum of stained area in the AOI as well as the number of objects after a smooth contrasting to enhance signal/noise ratio (the same for each image). • ee) Repetition of aa)-dd) for the hippocampus. • ff) Calculation of the mean plaque size (=“sum area of plaques/number of plaques”), the relative plaque number and area (=“number of plaques/region area” and “sum area of plaques/region area*100”). • gg) Automated data export into an Excel spread sheet, including the parameters “image title, region area, number of plaques, sum of plaque area, relative plaque number, relative plaque area and mean plaque size. A field for remarks was used to record image quality and exclusion criteria, respectively. Exclusion criteria were missing parts of the slice, many wrinkles, dominant flaws or staining inconsistencies (e.g. due to bulges, which can impede the full reaction of the blocking reagent). • hh) Closing the image without saving (to keep raw data raw). c) Results

TC-3 cells [3] = experiment: Cellular import of fluorescein-labeled TAT and TAT-IB1(s) peptides; format: cell-based
Protocol: The ability of the L- and D-enantiomeric forms of TAT and TAT-IB1(s) peptides (“TAT-IB peptides”) to enter cells was evaluated. L-TAT, D-TAT, L-TAT-IB1(s), and D-TAT-IB1(s) peptides [SEQ ID NOs: 5, 6, 9 and 12, respectively] were labeled by N-terminal addition of a glycine residue conjugated to fluorescein. Labeled peptides (1 μM) were added to TC-3 cell cultures, which were maintained as described in Example 3. At predetermined times cells were washed with PBS and fixed for five minutes in ice-cold methanol-acetone (1:1) before being examined under a fluorescence microscope. Fluorescein-labeled BSA (1 μM, 12 moles/mole BSA) was used as a control.
Little to no signal was present at 48 hours.
Fluorescent signals from these all-D retro-inverso peptides were still very strong 1 week later, and the signal was only slightly diminished at 2 weeks post treatment.

CC(C)C[C@@H](NC(=O)[C@@H](Cc1ccccc1)NC(=O)[C@H]1CCCN1C(=O)[C@@H](CCC(N)=O)NC(=O)[C@H](NC(=O)[C@H]1CCCN1C(=O)[C@@H](CCCNC(=N)N)NC(=O)[C@@H](CO)NC(=O)[C@@H](CCC(N)=O)NC(=O)[C@H](N)CC(=O)O)C(C)C)C(=O)N[C@H](CC(N)=O)C(=O)N[C@H](CC(C)C)C(=O)N[C@@H](C(=O)N[C@@H](C(=O)N1CCC[C@@H]1C(=O)N[C@H](CCCNC(=N)N)C(=O)N[C@H](CCCCN)C(=O)N1CCC[C@@H]1C(=O)N[C@H](CCCNC(=N)N)C(=O)N1CCC[C@@H]1C(=O)N1CCC[C@@H]1C(=O)N[C@H](CCCNC(=N)N)C(=O)N[C@H](CCCNC(=N)N)C(=O)N[C@H](CCCNC(=N)N)C(=O)N[C@H](CCC(N)=O)C(=O)N[C@H](CCCNC(=N)N)C(=O)N[C@H](CCCNC(=N)N)C(=O)N[C@H](CCCCN)C(=O)N[C@H](CCCCN)C(=O)N[C@H](CCCNC(=N)N)C(=O)NCC(=O)O)[C@H](C)O)[C@H](C)O [XG-102]
cytotoxicity at effective concentrations (murine macrophages): non-cytotoxic concentrations | LPS-induced TNFa, IL-6 and Rantes release (murine macrophages; murine macrophages): reducing LPS-induced TNFa, IL-6 and Rantes release in murine macrophages | concentration preventing VZV replication (lowest concentration tested) [1]: ≤ 0.25 µM | LPS-induced TNFa, IL-6 and MCP-1 release (THP-1 cells): reducing LPS-induced TNFa, IL-6 and MCP-1 release in THP-1 cells | long term protection from IL-1 induced cell death (TC-3 cells [2]): able to confer long term (15 day) protection | mean plaque size (ThioflavinS, hippocampus) (hAPP Tg mice; 0.1 mg/kg): reduced mean plaque size, however this effect did not reach significance level | cortical 6E10 IR plaque load (hAPP Tg mice; 10 mg/kg): increased versus vehicle | ThioflavinS plaque area [%] in the hippocampus (hAPP Tg mice; mouse, in vivo): significantly reduced the area obtained by plaques in the hippocampus | cortical plaque load (ThioflavinS) (hAPP Tg mice; mouse, in vivo): cortical plaque load remained unchanged | number of hippocampal ThioflavinS positive plaques (hAPP Tg mice; p<0.05 for 10 mg/kg, p<0.01 for 0.1 mg/kg): reduced the number of plaques negatively dose-dependent in the hippocampus; also recorded: a negatively dose dependent reduction of the number of hippocampal ThioflavinS positive plaques | entry into cells (fluorescence microscopy) (TC-3 cells [3]): efficiently and rapidly (less than five minutes) entered cells | stability inside the cells (TC-3 cells [3]): extremely stable inside the cells
